Where only a bound is given, the exact number is not on record here.

The target in assay [1] is T1, Human PDGFRα, cytoplasmic domain (GST-PDGFRα) (Homo sapiens, UniProt P16234).
T1 construct: made in house
Put plainly: Human PDGFRα biochemical inhibition assay (off-chip Mobility Shift Assay).

The target of assay [2] is T2, Human PDGFRβ, cytoplasmic domain (GST-PDGFRβ) (Homo sapiens, UniProt P09619).
T2 construct: made in house
The assay is described as follows: Human PDGFRβ biochemical inhibition assay (off-chip Mobility Shift Assay). The method, boiled down:
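GST-tagged cytoplasmic domain (aa 557-1106) from baculovirus was incubated 1 h at room temperature with compound, CSKtide, ATP at Km and Mg²⁺ in HEPES buffer, pH 7.5. Phosphorylated and unphosphorylated peptide were separated by off-chip mobility shift, and the product ratio P/(P+S) gave percent inhibition.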

T1 sequence (P16234 550-1089 T674I): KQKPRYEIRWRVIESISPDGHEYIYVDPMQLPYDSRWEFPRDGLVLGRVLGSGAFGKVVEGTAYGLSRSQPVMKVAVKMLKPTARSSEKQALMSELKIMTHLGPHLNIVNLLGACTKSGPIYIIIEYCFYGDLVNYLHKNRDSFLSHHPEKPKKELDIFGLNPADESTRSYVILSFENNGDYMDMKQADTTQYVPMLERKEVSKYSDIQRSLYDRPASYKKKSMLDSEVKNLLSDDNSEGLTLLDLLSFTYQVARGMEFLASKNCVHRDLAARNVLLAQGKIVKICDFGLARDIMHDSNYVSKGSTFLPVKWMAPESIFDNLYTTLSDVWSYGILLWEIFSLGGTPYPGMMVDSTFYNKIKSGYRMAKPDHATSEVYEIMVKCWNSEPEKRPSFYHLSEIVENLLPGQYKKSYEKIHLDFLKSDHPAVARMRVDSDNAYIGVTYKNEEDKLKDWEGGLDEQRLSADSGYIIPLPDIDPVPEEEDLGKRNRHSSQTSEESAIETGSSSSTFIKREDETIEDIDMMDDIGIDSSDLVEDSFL
T2 sequence (P09619 with tags, fused parts or gaps): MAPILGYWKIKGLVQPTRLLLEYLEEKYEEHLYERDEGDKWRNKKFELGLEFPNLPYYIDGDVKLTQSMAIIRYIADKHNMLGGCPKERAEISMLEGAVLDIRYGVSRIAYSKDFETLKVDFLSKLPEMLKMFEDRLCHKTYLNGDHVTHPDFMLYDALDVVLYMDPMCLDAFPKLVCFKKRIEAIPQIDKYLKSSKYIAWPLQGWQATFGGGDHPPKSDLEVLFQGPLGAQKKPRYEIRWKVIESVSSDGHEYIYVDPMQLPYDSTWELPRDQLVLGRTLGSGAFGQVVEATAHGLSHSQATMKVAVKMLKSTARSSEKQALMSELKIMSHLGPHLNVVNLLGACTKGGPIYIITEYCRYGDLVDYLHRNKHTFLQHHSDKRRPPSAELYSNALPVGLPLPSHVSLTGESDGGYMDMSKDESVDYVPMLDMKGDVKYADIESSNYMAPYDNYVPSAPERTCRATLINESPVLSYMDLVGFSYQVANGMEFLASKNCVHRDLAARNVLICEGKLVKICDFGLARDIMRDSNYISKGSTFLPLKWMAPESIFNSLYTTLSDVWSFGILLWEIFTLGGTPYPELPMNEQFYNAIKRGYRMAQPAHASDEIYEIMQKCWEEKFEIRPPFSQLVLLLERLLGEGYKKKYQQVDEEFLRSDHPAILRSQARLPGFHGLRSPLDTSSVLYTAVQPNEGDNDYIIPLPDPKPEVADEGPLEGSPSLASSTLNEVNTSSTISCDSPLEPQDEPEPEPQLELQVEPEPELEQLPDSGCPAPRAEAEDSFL

As a reminder, the IC50 is the concentration that inhibits the measured activity by half. `CCc1cc2ncc(N[C@@H](C)c3cc(NC(=O)c4ccc(C(F)(F)F)nc4)ccc3F)nc2o1` [Compound 619, (S)-N-(3-(1-((6-ethylfuro[2,3-b]pyrazin-3-yl)amino)ethyl)-4-fluorophenyl)-6-(trifluoromethyl)nicotinamide]: the IC50 in assay [1] and in assay [2] was less than 300 nM each time.
Consider `CCn1cc2ncc(N[C@@H](C)c3cccc(NC(=O)c4ccc(OC(F)(F)F)c(C)c4)c3)nc2n1` [Compound 452, (S)-N-(3-(1-((2-ethyl-2H-pyrazolo[3,4-b]pyrazin-6-yl)amino)ethyl)phenyl)-3-methyl-4-(trifluoromethoxy)benzamide], for which the IC50 in assay [1] and in assay [2] was less than 300 nM each time.
For `CCn1cc2ncc(N[C@@H](C)c3cccc(NC(=O)c4ccc(CN5CCC6(COC6)C5)c(C)c4)c3)nc2n1` [Compound 460, (S)-4-((2-oxa-6-azaspiro[3.4]octan-6-yl)methyl)-N-(3-(1-((2-ethyl-2H-pyrazolo[3,4-b]pyrazin-6-yl)amino)ethyl)phenyl)-3-methylbenzamide], the IC50 in assay [1] and in assay [2] was less than 300 nM throughout.
Turning to `C[C@H](Nc1cnc2cnn(C)c2n1)c1cccc(NC(=O)c2cc(C(C)(C)C)nn2C)c1` [Compound 159, (S)-3-(tert-butyl)-1-methyl-N-(3-(1-((1-methyl-1H-pyrazolo[3,4-b]pyrazin-6-yl)amino)ethyl)phenyl)-1H-pyrazole-5-carboxamide], the half-maximal inhibitory concentration (IC50) in assay [1] and in assay [2] was less than 300 nM each time.
As to `CCn1cc2ncc(N[C@@H](C)c3cc(NC(=O)Cc4ccc(F)c(CN5CCN(C)CC5)n4)ccc3C)nc2n1` [Compound 726, (S)-N-(3-(1-((2-ethyl-2H-pyrazolo[3,4-b]pyrazin-6-yl)amino)ethyl)-4-methylphenyl)-2-(5-fluoro-6-((4-methylpiperazin-1-yl)methyl)pyridin-2-yl)acetamide], the figures for the IC50 in assay [1] and in assay [2] were less than 300 nM and 300 to 1000 nM, respectively.
The matching figures for `C[C@H](Nc1cnc2cnn(C)c2n1)c1cccc(NC(=O)c2ccc(S(C)(=O)=O)nc2)c1` [Compound 221, (S)-N-(3-(1-((1-methyl-1H-pyrazolo[3,4-b]pyrazin-6-yl)amino)ethyl)phenyl)-6-(methylsulfonyl)nicotinamide]: less than 300 nM and less than 300 nM.
As to `CCc1cc(C(=O)Nc2cccc([C@H](C)Nc3cnc4cn(CC)nc4n3)c2)ccc1CN1CC2(COC2)C1` [Compound 499, (S)-4-((2-oxa-6-azaspiro[3,3]heptan-6-yl)methyl)-3-ethyl-N-(3-(1-((2-ethyl-2H-pyrazolo[3,4-b]pyrazin-6-yl)amino)ethyl)phenyl)benzamide], the half-maximal inhibitory concentration (IC50) in assay [1] and in assay [2] was less than 300 nM each time.
For the molecule `CCn1cc2ncc(N[C@@H](C)c3cc(NC(=O)c4cnn(C5CC5)c4)ccc3F)nc2n1` [Compound 312, (S)-1-cyclopropyl-N-(3-(1-((2-ethyl-2H-pyrazolo[3,4-b]pyrazin-6-yl)amino)ethyl)-4-fluorophenyl)-1H-pyrazole-4-carboxamide], the concentration for half-maximal inhibition (IC50) in assay [1] and in assay [2] was less than 300 nM in each case.
With `C[C@H](Nc1cnc2cn(C3CC3)nc2n1)c1cc(NC(=O)c2cnc(C(F)(F)F)s2)ccc1F` [Compound 399, (S)-N-(3-(1-((2-cyclopropyl-2H-pyrazolo[3,4-b]pyrazin-6-yl)amino)ethyl)-4-fluorophenyl)-2-(trifluoromethyl)thiazole-5-carboxamide], the IC50 in assay [1] and in assay [2] was less than 300 nM throughout.
As for `CCn1cc2ncc(N[C@@H](C)c3cccc(NC(=O)c4cnn(C5CC5)c4)c3)nc2n1` [Compound 299, (S)-1-cyclopropyl-N-(3-(1-((2-ethyl-2H-pyrazolo[3,4-b]pyrazin-6-yl)amino)ethyl)phenyl)-1H-pyrazole-4-carboxamide], the IC50 in assay [1] is less than 300 nM; in assay [2], 300 to 1000 nM.
The matching figures for `CCOc1ncc(C(=O)Nc2cccc([C@H](C)Nc3cnc4cn(CC)nc4n3)c2)s1` [Compound 362, (S)-2-ethoxy-N-(3-(1-((2-ethyl-2H-pyrazolo[3,4-b]pyrazin-6-yl)amino)ethyl)phenyl)thiazole-5-carboxamide]: less than 300 nM and 300 to 1000 nM.
For `Cc1cncc(C(=O)Nc2cccc([C@H](C)Nc3cnc4ccc(C5CC5)cc4n3)c2)c1` [Compound 41, (S)-N-(3-(1-((7-cyclopropylquinoxalin-2-yl)amino)ethyl)phenyl)-5-methylnicotinamide] the same measures were less than 300 nM and less than 300 nM.
For `CCn1ncc2ncc(N[C@@H](C)c3cccc(NC(=O)c4cncc(C)c4)c3)cc21` [Compound 7] the same measures were less than 300 nM and not below 1000 nM.
Take `CCn1cc2ncc(N[C@@H](C)c3cc(NC(=O)Cc4ccc(OC)cn4)ccc3C)nc2n1` [Compound 698, (S)-N-(3-(1-((2-ethyl-2H-pyrazolo[3,4-b]pyrazin-6-yl)amino)ethyl)-4-methylphenyl)-2-(5-methoxypyridin-2-yl) acetamide]: the results for the half-maximal inhibitory concentration (IC50) in assay [1] and in assay [2] were less than 300 nM and 300 to 1000 nM, respectively.
For `Cc1cncc(C(=O)Nc2cccc([C@H](C)Nc3cnc4[nH]cnc4n3)c2)c1` [Compound 23, (S)—N-(3-(1-((1H-imidazo[4,5-b]pyrazin-5-yl)amino)ethyl)phenyl)-5-methylnicotinamide] the same measures were 300 to 1000 nM and 300 to 1000 nM.
The matching figures for `CCn1cc2ncc(N[C@@H](C)c3cccc(NC(=O)c4ccc(CN5CCN(C)CC5)cc4)c3)nc2n1` [Compound 376, (S)-N-(3-(1-((2-ethyl-2H-pyrazolo[3,4-b]pyrazin-6-yl)amino)ethyl)phenyl)-4-((4-methylpiperazin-1-yl)methyl) benzamide]: less than 300 nM and less than 300 nM.
For `CCn1cc2ncc(N[C@@H](C)c3cccc(NC(=O)Cc4cncc(F)c4)c3)nc2n1` [Compound 623, (S)-N-(3-(1-((2-ethyl-2H-pyrazolo[3,4-b]pyrazin-6-yl)amino)ethyl)phenyl)-2-(5-fluoropyridin-3-yl)acetamide] the same measures were 300 to 1000 nM and not below 1000 nM.
For the molecule `Cc1cc(C(=O)Nc2cccc([C@H](C)Nc3cnc4cnn(C)c4n3)c2)ccc1C#N` [Compound 193, (S)-4-cyano-3-methyl-N-(3-(1-((1-methyl-1H-pyrazolo[3,4-b]pyrazin-6-yl)amino)ethyl)phenyl)benzamide], the 50% inhibitory concentration (IC50) in assay [1] and in assay [2] was less than 300 nM in each case.
Consider `CC(C)c1cc(C(=O)Nc2cccc([C@H](C)Nc3cnc4[nH]ncc4n3)c2)no1` [Compound 530, (S)-N-(3-(1-((1H-pyrazolo[3,4-b]pyrazin-5-yl)amino)ethyl)phenyl)-5-isopropylisoxazole-3-carboxamide], for which the IC50 in assay [1] and in assay [2] was less than 300 nM each time.
As for `C[C@H](Nc1cnc2cnn(C)c2n1)c1cccc(NC(=O)c2cncc(C3CC3)c2)c1` [Compound 105, (S)-5-cyclopropyl-N-(3-(1-((1-methyl-1H-pyrazolo[3,4-b]pyrazin-6-yl)amino)ethyl)phenyl)nicotinamide], the IC50 in assay [1] and in assay [2] was less than 300 nM each time.
Take `CCn1cc2ncc(N[C@@H](C)c3cccc(NC(=O)c4ccc(CN5CCC5)c(Cl)c4)c3)nc2n1` [Compound 486, (S)-4-(azetidin-1-ylmethyl)-3-chloro-N-(3-(1-((2-ethyl-2H-pyrazolo[3,4-b]pyrazin-6-yl)amino)ethyl)phenyl)benzamide]: the IC50 in assay [1] and in assay [2] was less than 300 nM throughout.

For the origin of these results see US20230102554A1 (GB002, INC., priority 2019, published 2023).
